# Data: patent publication US20210179578A1, “OX1 ANTAGONISTS” (Heptares Therapeutics Limited, priority 2017, published 2021)
# Target: T1, human OX2 receptor (Homo sapiens, UniProt O43614)
# T1 sequence (O43614 1-444): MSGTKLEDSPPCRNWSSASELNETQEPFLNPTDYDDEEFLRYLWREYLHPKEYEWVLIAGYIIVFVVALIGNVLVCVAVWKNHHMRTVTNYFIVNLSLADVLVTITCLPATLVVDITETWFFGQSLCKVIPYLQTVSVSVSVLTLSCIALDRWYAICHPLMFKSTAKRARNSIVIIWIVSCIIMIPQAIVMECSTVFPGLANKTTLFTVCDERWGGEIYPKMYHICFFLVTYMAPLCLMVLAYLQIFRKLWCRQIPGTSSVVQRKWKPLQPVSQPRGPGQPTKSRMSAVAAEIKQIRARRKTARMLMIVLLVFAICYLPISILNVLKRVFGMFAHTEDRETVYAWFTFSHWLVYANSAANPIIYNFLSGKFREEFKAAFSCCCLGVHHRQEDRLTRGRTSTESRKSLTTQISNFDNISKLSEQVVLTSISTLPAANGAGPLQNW
# Test: [3H]-radioligand binding assay, OX2
# Set-up: made in house; host or cells: SF21 insect cells (baculovirus; P0 virus made in SF9)
# Conditions: [3H]-radioligand binding, human OX2 membranes; read-out: pKi average OX2 (converted)
# Text: Cloning, Baculovirus generation, large-scale infection of SF21 cells and membrane preparation. Human OX1 or OX2 receptor were cloned into Invitrogen's (ThermoFisher Scientific, UK) Bac-to-Bac Baculovirus Expression System. P0 baculovirus was generated by transfecting SF9 cells with bacmid DNA using Cellfectin® II transfection reagent (ThermoFisher Scientific, UK, Catalog number 10362-100). Following P0 generation P1 virus was then generated ready for large scale infection and membrane preparation. SF21 cells were grown in expression medium ESF921 (Expression Systems, USA, catalog number 96-001-01) supplemented with 10% heat-inactivated FBS and 1% Pen/Strep and were infected at a cell density of 2.5×10^6 cells/mL and a multiplicity of infection of 1.0 for both human OX1R and OX2R. Incubation was carried out at over 48 h in a shaking incubator set at 27° C. The cell culture was then centrifuged at 2,500 rcf for 10 min at 4° C. The pellets were resuspended in cold PBS supplemented with Roche's Complete EDTA-free protease inhibitor cocktail tablets (Roche Applied Sciences, catalog number 05056489001), 1 mM PMSF and 1 mM EDTA. The resuspended cell paste was then centrifuged at 3,273 rcf for 12 min at 4° C. The supernatant was discarded and the pellet frozen at −80° C. The cell pellet from a 4 L culture was resuspended in buffer containing 50 mM HEPES pH 7.5, 150 mM NaCl, 8 Roche EDTA-Free protease inhibitor cocktail tablets and 1 mM PMSF. The suspension was left stirring at rt for 1 h and then homogenised for 90 s at 9,500 rpm using a VDI 25 (VWR, USA) homogeniser. The cells were then lysed using a Microfluidiser processor M-110L Pneumatic (Microfluidics, USA) at 60 PSI and membranes collected by ultracentrifugation at 204.7 k×g for 1 h. The supernatant was discarded and the pellet was resuspended and homogenised in 90 s at 9,500 rpm in 50 mL (25 mL for each 2 L culture) of buffer containing 50 mM Hepes pH 7.5, 150 mM NaCl, 3 Roche EDTA-free protease inhibitor cocktail tablets and 1 mM PMSF. The resulting membranes were then stored at −80° C.
# [^3H]-radioligand binding assay. After thawing, membrane homogenates were resuspended in the binding buffer (8.5 mM HEPES, pH 7.4, 1.3 mM CaCl2, 1.2 mM MgSO4, 118 mM NaCl, 4.7 mM KCl, 4 mM NaHCO3, 1.2 mM KH2PO4, 11 mM glucose) to a final assay concentration of 6.4 μg (OX1) or 1.4 μg (OX2) protein per well. Saturation isotherms were determined by the addition of various concentrations (0-30 nM) of [^3H]-4-(2,6-difluoro-4-methoxybenzyl)-2-(5,6-dimethoxypyridin-3-yl)-2H-1,2,4-benzothiadiazin-3(4H)-one 1,1-dioxide (Christopher et al, MedChemComm., 2015, 6, 947-955) in a total reaction volume of 250 μL for 90 min at rt. At the end of the incubation, membranes were filtered onto a 96-well GF/B filter pre-incubated with 0.5% polyethylenimine, with a Tomtec cell harvester and washed 5 times with 0.5 mL distilled water. Non-specific binding (NSB) was measured in the presence of 3.33 μM [4-(5-chloro-1,3-benzoxazol-2-yl)-7-methyl-1,4-diazepan-1-yl][5-methyl-2-(2H-1,2,3-triazol-2-yl)phenyl]methanone (Wertz et al, Angew. Chem. Int. Ed., 2011, 50, 11511-11515). Radioactivity on the filter was counted (1 min) on a Microbeta radiometric plate counter (Perkin Elmer) after addition of 50 μL of scintillation fluid (LabLogic: Part #SG-BXX-14). […] IC50 values were derived from the inhibition curve and the equilibrium dissociation constant (Ki) values were calculated using the Cheng-Prusoff equation.
row,Structure (SMILES),Ki
1,"COc1ncc(C2CCc3c(F)cccc3N(Cc3c(F)cc(Br)cc3F)C2=O)cc1S(C)(=O)=O (racemic) [Example 19, 1-(4-bromo-2,6-difluorobenzyl)-6-fluoro-3-[6-methoxy-5-(methylsulfonyl)pyridin-3-yl]-1,3,4,5-tetrahydro-2H-1-benzazepin-2-one]",> 251 nM
2,"COc1ncc(C2CCc3c(F)cccc3N(Cc3c(F)cc(Br)cc3F)C2=O)cc1C(C)(F)F (single isomer, unassigned) [Example 12, 1-(4-bromo-2,6-difluorobenzyl)-3-[5-(1,1-difluoroethyl)-6-methoxypyridin-3-yl]-6-fluoro-1,3,4,5-tetrahydro-2H-1-benzazepin-2-one]",> 398 nM
3,"COc1ncc(C2CCc3c(F)cccc3N(Cc3cc(C#N)ccc3F)C2=O)cc1C(C)(F)F (single isomer, unassigned) [Example 13, 3-({3-[5-(1,1-difluoroethyl)-6-methoxypyridin-3-yl]-6-fluoro-2-oxo-2,3,4,5-tetrahydro-1H-1-benzazepin-1-yl}methyl)-4-fluorobenzonitrile]",> 158 nM
4,"COc1ncc(C2CCc3c(F)cccc3N(Cc3c(F)cc(Cl)cc3F)C2=O)cc1S(C)(=O)=O (single isomer, unassigned) [Example 22, 1-(4-chloro-2,6-difluorobenzyl)-6-fluoro-3-[6-methoxy-5-(methylsulfonyl)pyridin-3-yl]-1,3,4,5-tetrahydro-2H-1-benzazepin-2-one]",> 631 nM
5,"Cc1ncc(C2CCc3c(F)cccc3N(Cc3c(F)cc(Br)cc3F)C2=O)cc1C(C)(F)F (single isomer, unassigned) [Example 35, 1-(4-bromo-2,6-difluorobenzyl)-3-[5-(1,1-difluoroethyl)-6-methylpyridin-3-yl]-6-fluoro-1,3,4,5-tetrahydro-2H-1-benzazepin-2-one]",> 126 nM
6,"Cc1ncc(C2CCc3c(F)cccc3N(Cc3c(F)cc(Br)cc3F)C2=O)cc1C(C)(F)F (single isomer, unassigned) [Example 36, 1-(4-bromo-2,6-difluorobenzyl)-3-[5-(1,1-difluoroethyl)-6-methylpyridin-3-yl]-6-fluoro-1,3,4,5-tetrahydro-2H-1-benzazepin-2-one]",200 nM
7,"Cc1ncc(C2CCc3c(F)cccc3N(Cc3c(F)cc(Br)cc3F)C2=O)cc1S(C)(=O)=O (single isomer, unassigned) [Example 38, 1-(4-bromo-2,6-difluorobenzyl)-6-fluoro-3-[6-methyl-5-(methylsulfonyl)pyridin-3-yl]-1,3,4,5-tetrahydro-2H-1-benzazepin-2-one]",> 316 nM
8,"Cc1ncc(C2CCc3c(F)cccc3N(Cc3c(F)cc(Br)cc3F)C2=O)cc1S(C)(=O)=O (single isomer, unassigned) [Example 39, 1-(4-bromo-2,6-difluorobenzyl)-6-fluoro-3-[6-methyl-5-(methylsulfonyl)pyridin-3-yl]-1,3,4,5-tetrahydro-2H-1-benzazepin-2-one]",> 501 nM
9,"Cc1ccc(N2CCc3c(F)cccc3N(Cc3c(F)cc(Br)cc3F)C2=O)cc1C(C)(F)F [Example 1, 1-(4-bromo-2,6-difluorobenzyl)-3-[3-(1,1-difluoroethyl)-4-methylphenyl]-6-fluoro-1,3,4,5-tetrahydro-2H-1,3-benzodiazepin-2-one]",200 nM
10,"COc1ncc(N2CCc3c(F)cccc3N(Cc3c(F)cc(Br)cc3F)C2=O)cc1C(C)(F)F [Example 3, 1-(4-bromo-2,6-difluorobenzyl)-3-[5-(1,1-difluoroethyl)-6-methoxypyridin-3-yl]-6-fluoro-1,3,4,5-tetrahydro-2H-1,3-benzodiazepin-2-one]",> 79.4 nM
11,"COc1ccc(CN2C(=O)N(c3cnc(OC)c(C(C)(F)F)c3)CCc3c(F)cccc32)c(F)c1 [Example 4, 3-[5-(1,1-difluoroethyl)-6-methoxypyridin-3-yl]-6-fluoro-1-(2-fluoro-4-methoxybenzyl)-1,3,4,5-tetrahydro-2H-1,3-benzodiazepin-2-one]",63.1 nM
12,"[2H]C([2H])([2H])Oc1cc(F)c(CN2C(=O)N(c3cnc(OC)c(C(C)(F)F)c3)CCc3c(F)cccc32)c(F)c1 [Example 6, 3-[5-(1,1-difluoroethyl)-6-methoxypyridin-3-yl]-1-{2,6-difluoro-4-[(^2H3)methyloxy]benzyl}-6-fluoro-1,3,4,5-tetrahydro-2H-1,3-benzodiazepin-2-one]",100 nM
13,"COc1ncc(N2CCc3c(F)cccc3N(Cc3ccc(Br)cc3F)C2=O)cc1C(C)(F)F [Example 10, 1-(4-bromo-2-fluorobenzyl)-3-[5-(1,1-difluoroethyl)-6-methoxypyridin-3-yl]-6-fluoro-1,3,4,5-tetrahydro-2H-1,3-benzodiazepin-2-one]",> 251 nM
14,"COc1ncc(N2CCc3c(F)cccc3N(Cc3c(F)cc(Br)cc3F)C2=O)cc1S(C)(=O)=O [Example 14, 1-(4-bromo-2,6-difluorobenzyl)-6-fluoro-3-[6-methoxy-5-(methylsulfonyl)pyridin-3-yl]-1,3,4,5-tetrahydro-2H-1,3-benzodiazepin-2-one]",> 251 nM
15,"COc1cc(F)c(CN2C(=O)N(c3cnc(OC)c(S(C)(=O)=O)c3)CCc3c(F)cccc32)c(F)c1F [Example 15, 6-fluoro-3-[6-methoxy-5-(methylsulfonyl)pyridin-3-yl]-1-(2,3,6-trifluoro-4-methoxybenzyl)-1,3,4,5-tetrahydro-2H-1,3-benzodiazepin-2-one]",> 251 nM
16,"COc1nc(OC)c(C(C)(F)F)cc1N1CCc2c(F)cccc2N(Cc2c(F)cc(Br)cc2F)C1=O [Example 23, 1-(4-bromo-2,6-difluorobenzyl)-3-[5-(1,1-difluoroethyl)-2,6-dimethoxypyridin-3-yl]-6-fluoro-1,3,4,5-tetrahydro-2H-1,3-benzodiazepin-2-one]",> 126 nM
17,"COCc1cc(F)c(CN2C(=O)N(c3cc(C(C)(F)F)c(OC)nc3OC)CCc3c(F)cccc32)c(F)c1 [Example 24, 3-[5-(1,1-difluoroethyl)-2,6-dimethoxypyridin-3-yl]-1-[2,6-difluoro-4-(methoxymethyl)benzyl]-6-fluoro-1,3,4,5-tetrahydro-2H-1,3-benzodiazepin-2-one]",> 158 nM
18,"COc1cc(F)c(CN2C(=O)N(c3cc(S(C)(=O)=O)c(OC)nc3OC)CCc3c(F)cccc32)c(F)c1 [Example 25, 1-(2,6-difluoro-4-methoxybenzyl)-3-[2,6-dimethoxy-5-(methylsulfonyl)pyridin-3-yl]-6-fluoro-1,3,4,5-tetrahydro-2H-1,3-benzodiazepin-2-one]",> 126 nM
19,"CSc1cc(N2CCc3c(F)cccc3N(Cc3c(F)cc(Br)cc3F)C2=O)ccc1C [Example 26, 1-(4-bromo-2,6-difluorobenzyl)-6-fluoro-3-[4-methyl-3-(methylsulfanyl)phenyl]-1,3,4,5-tetrahydro-2H-1,3-benzodiazepin-2-one]",100 nM
